Assay results: patent US20240368163A1, “COMPOUNDS AND METHODS FOR MODULATING SPLICING” (REMIX THERAPEUTICS INC., priority 2021, published 2024)

Columns and labels:
Assay type in all cases: cell-based, human
HTT [1] = assay: HiBiT protein abundance assay, HTT; details: Homo sapiens, K562, 24 h, Table 13A, modified K562 cells
How it was run: (§1)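 Tagged-target degradation assay: HiBiT-modified K562 cells treated 24 h with compound, 10 concentrations up to 10 μM final. Following lysis with LgBiT and substrate, luminescence gave normalized abundance; IC50 derived by logistic interpolation at 50%.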

Target C [2] = assay: HiBiT protein abundance assay, Target C; details: Homo sapiens, K562, 24 h, Table 13A, modified K562 cells
How it was run: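 Target tagged with HiBiT by knock-in; 24 h dosing, 10 μM top final in 3-fold steps. IC50 from 4PL fit of normalized luminescence.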

MYB [3] = assay: HiBiT protein abundance assay, MYB; details: Homo sapiens, K562, 24 h, Table 13A, modified K562 cells
How it was run: as §1

MYB [4] = assay: Splicing RT-qPCR assay, MYB mRNA canonical junction (CJ) and alternative junction (AJ); details: Homo sapiens; for AC50: increase in AJ mRNA
How it was run: (§2)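 A673 or K562 cells were treated 24 h at 37 °C with an 11-point 3-fold dilution series (top 10 uM final, DMSO ≤0.25%). Lysates underwent one-step RT-qPCR for canonical (CJ) and alternative (AJ) junctions; Ct normalized to GAPDH, GUSB or PPIA and DMSO control via 2^(−ΔΔCt), expressed as percentage response.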

Target C [5] = assay: Splicing RT-qPCR panel, Target C canonical junction (CJ) mRNA; details: Homo sapiens, RT-qPCR panel, canonical junction mRNA; compound concentration having 50% response in CJ decrease; read-out: Target C IC50 (decrease in CJ mRNA levels)
How it was run: as §2

HTT [6] = assay: Splicing RT-qPCR assay, HTT mRNA canonical junction (CJ) and alternative junction (AJ); details: Homo sapiens; for AC50: increase in AJ mRNA
How it was run: as §2

SMN2 = assay: Splicing RT-qPCR panel, SMN2 canonical junction (CJ) mRNA; details: Homo sapiens, RT-qPCR panel, canonical junction mRNA; compound concentration having 50% response in CJ decrease; read-out: SMN2 IC50 (decrease in CJ mRNA levels)
How it was run: as §2

[7] = 24 h, decrease in CJ mRNA, A673 or K562 cells, 24 hours treatment, RT-qPCR, read-out: MYB CJ IC50
[8] = 24 h, A673 or K562 cells, 24 hours treatment, RT-qPCR
[9] = RT-qPCR panel, canonical junction mRNA, compound concentration having 50% response in CJ decrease, read-out: MYB IC50 (decrease in CJ mRNA levels)
[10] = 24 h, decrease in CJ mRNA, A673 or K562 cells, 24 hours treatment, RT-qPCR, read-out: HTT CJ IC50
[11] = RT-qPCR panel, canonical junction mRNA, compound concentration having 50% response in CJ decrease, read-out: HTT IC50 (decrease in CJ mRNA levels)

Row | SMILES | IC50 (HTT [1]) [µM] | IC50 (Target C [2]) [µM] | IC50 (MYB [3]) [µM] | IC50 (MYB [4]; [7]) [µM] | IC50 (MYB [4]; [9]) [µM] | IC50 (Target C [5]) [µM] | IC50 (HTT [6]; [10]) [µM] | IC50 (HTT [6]; [11]) [µM] | IC50 (SMN2) [µM] | AC50 (MYB [4]; [8]) [µM] | AC50 (HTT [6]; [8]) [µM]
1 | CN(c1ccc(-c2ccc(-c3cnnc(O)c3)c3scnc23)nn1)C1CC(C)(C)NC(C)(C)C1 [Compound 234] | 1 to 10 | > 10 | 1 to 10 | > 10 | > 10 | > 10 | > 10 | > 10 | 0.1 to 1 | > 10 | > 10
2 | CN1C[C@@H]2[C@H](C1)[C@H]2N(C)c1ccc(-c2ccc(-c3cn[nH]c3)c3ncsc23)nn1 [Compound 235] | 1 to 10 | 0.1 to 1 | 1 to 10 | > 10 | > 10 | > 10 | > 10 | > 10 | 1 to 10 | > 10 | > 10
3 | CN(c1ccc(-c2ccc(-c3cnn(C)c3)c3cn[nH]c23)nn1)C1CC(C)(C)NC(C)(C)C1 [Compound 243] | 1 to 10 | > 10 | 1 to 10 | 1 to 10 | 1 to 10 | > 10 | 1 to 10 | 1 to 10 | 0.1 to 1 | 1 to 10 | 1 to 10
4 | c1n[nH]cc1-c1ccc(-c2ccc(NC3CCNCC3)nn2)c2[nH]ncc12 [Compound 263] | > 10 | > 10 | > 10 | > 10 | > 10 | > 10 | > 10 | > 10 | > 10 | > 10 | > 10
5 | CN(c1ccc(-c2ccc(-n3cccn3)c3cn[nH]c23)nn1)C1CCNCC1 [Compound 264] | 1 to 10 | 1 to 10 | 1 to 10 | > 10 | > 10 | > 10 | > 10 | > 10 | 1 to 10 | > 10 | > 10
6 | c1nc2c(-c3cn[nH]c3)ccc(-c3ccc(N4CCC5(CCN5)C4)nn3)c2s1 (centres unmarked) [Compound 265] | > 10 | > 10 | > 10 | 1 to 10 | 1 to 10 | > 10 | > 10 | > 10 | 0.1 to 1 | > 10 | > 10
7 | c1nc2c(-c3cn[nH]c3)ccc(-c3ccc(N4CCC45CCNCC5)nn3)c2s1 [Compound 266] | 1 to 10 | > 10 | 1 to 10 | 1 to 10 | 1 to 10 | > 10 | 1 to 10 | 1 to 10 | > 10 | > 10 | > 10
8 | [2H]C([2H])([2H])N(c1ccc(-c2ccc(-c3cn[nH]c3)c3cn[nH]c23)nn1)C1CCNCC1 [Compound 267] | 1 to 10 | 1 to 10 | 1 to 10 | > 10 | > 10 | > 10 | > 10 | > 10 | 1 to 10 | > 10 | > 10
9 | CN(c1ccc(-c2ccc(-c3cn[nH]c3)c3cn[nH]c23)nn1)C1CCNCC1 [Compound 273] | > 10 | 1 to 10 | 1 to 10 | > 10 | > 10 | > 10 | > 10 | > 10 | 1 to 10 | > 10 | > 10
10 | CCN(c1ccc(-c2ccc(-c3cn[nH]c3)c3cn[nH]c23)nn1)C1CCNCC1 [Compound 274] | 1 to 10 | 1 to 10 | 1 to 10 | > 10 | > 10 | > 10 | > 10 | > 10 | 1 to 10 | > 10 | > 10
11 | CC1(C)CC(Nc2ccc(-c3ccc(-c4cn[nH]c4)c4cn[nH]c34)nn2)CC(C)(C)N1 [Compound 275] | 0.1 to 1 | < 0.1 | 0.1 to 1 | 0.1 to 1 | 0.1 to 1 | 1 to 10 | 0.1 to 1 | 0.1 to 1 | 0.1 to 1 | 1 to 10 | 1 to 10
12 | c1nc2c(-c3cn[nH]c3)ccc(-c3ccc(N4CCC45CCCNC5)nn3)c2s1 (centres unmarked) [Compound 276] | 1 to 10 | 1 to 10 | 1 to 10 | 1 to 10 | 1 to 10 | 1 to 10 | 1 to 10 | 1 to 10 | 1 to 10 | 1 to 10 | 1 to 10

Continued, in another order:

Row | IC50 (HTT [1]) [µM] | IC50 (Target C [2]) [µM] | IC50 (MYB [3]) [µM] | IC50 (MYB [4]; [7]) [µM] | IC50 (MYB [4]; [9]) [µM] | IC50 (Target C [5]) [µM] | IC50 (HTT [6]; [10]) [µM] | IC50 (HTT [6]; [11]) [µM] | IC50 (SMN2) [µM] | SMILES | AC50 (MYB [4]; [8]) [µM] | AC50 (HTT [6]; [8]) [µM]
13 | > 10 | > 10 | > 10 | > 10 | > 10 | > 10 | > 10 | > 10 | > 10 | c1n[nH]cc1-c1ccc(-c2ccc(NC3CNC3)nn2)c2[nH]ncc12 [Compound 237] | > 10 | > 10
14 | > 10 | > 10 | > 10 | > 10 | > 10 | > 10 | > 10 | > 10 | > 10 | c1n[nH]cc1-c1ccc(-c2ccc(N3CCC4(CC3)CNC4)nn2)c2[nH]ncc12 [Compound 238] | > 10 | > 10
15 | > 10 | > 10 | > 10 | > 10 | > 10 | > 10 | > 10 | > 10 | > 10 | c1n[nH]cc1-c1ccc(-c2ccc(N3CCC4(CCNCC4)C3)nn2)c2[nH]ncc12 [Compound 239] | > 10 | > 10
16 | > 10 | > 10 | > 10 | > 10 | > 10 | > 10 | > 10 | > 10 | > 10 | c1n[nH]cc1-c1ccc(-c2ccc(N3CCC4(CCNC4)CC3)nn2)c2[nH]ncc12 [Compound 240] | > 10 | > 10
17 | 1 to 10 | 1 to 10 | 1 to 10 | > 10 | > 10 | > 10 | > 10 | > 10 | 1 to 10 | c1n[nH]cc1-c1ccc(-c2ccc(N3CCNCC3)nn2)c2[nH]ncc12 [Compound 241] | 1 to 10 | 1 to 10
18 | > 10 | > 10 | > 10 | > 10 | > 10 | > 10 | > 10 | > 10 | > 10 | c1n[nH]cc1-c1ccc(-c2ccc(N3CCCC4(CNC4)C3)nn2)c2[nH]ncc12 [Compound 251] | > 10 | > 10
19 | > 10 | > 10 | 1 to 10 | > 10 | > 10 | > 10 | > 10 | > 10 | 1 to 10 | c1n[nH]cc1-c1ccc(-c2ccc(N3CCC4(CCCNC4)C3)nn2)c2[nH]ncc12 (centres unmarked) [Compound 252] | > 10 | > 10
20 | > 10 | > 10 | > 10 | > 10 | > 10 | > 10 | > 10 | > 10 | > 10 | c1n[nH]cc1-c1ccc(-c2ccc(N3CCCC4(CCNC4)C3)nn2)c2[nH]ncc12 (centres unmarked) [Compound 253] | > 10 | > 10
21 | > 10 | > 10 | > 10 | > 10 | > 10 | > 10 | > 10 | > 10 | 0.1 to 1 | c1n[nH]cc1-c1ccc(-c2ccc(N3C[C@H]4CNC[C@H]4C3)nn2)c2[nH]ncc12 [Compound 254] | 1 to 10 | > 10
22 | 1 to 10 | > 10 | 1 to 10 | > 10 | > 10 | > 10 | > 10 | > 10 | 0.1 to 1 | CN1C[C@@H]2CN(c3ccc(-c4ccc(-c5cn[nH]c5)c5cn[nH]c45)nn3)C[C@@H]2C1 [Compound 255] | 1 to 10 | > 10
